This is an account of results in patent US20240016819A1, “CANNABINOIDS FOR USE IN THE TREATMENT OF EPILEPSY” (GW RESEARCH LIMITED, priority 2020, published 2024).

This assay has as its system seizures in patients with TSC. Briefly: Mean total seizures over time in TSC patients after administration of CBD (FIG. 2). The assay is classed as in vivo, human. The conditions noted are these: starting dose 5 mg/kg/day, 2 week titration period. How it is done: Patients with TSC were administered a highly purified extract of cannabidiol (CBD) obtained from a cannabis plant described herein. Similar to Example 1, patients with a TSC diagnosis were administered a starting dose of 5 mg/kg/day CBD in addition to their baseline anti-epileptic drug (AED) regimen or placebo.
The daily dose was increased by 5 mg/kg increments until intolerance occurred or a maximum dose of 25 mg/kg/day was achieved. The starting dose increase from 5 mg/kg/day to 10 mg/kg/day occurred 7 days after administration of the first dose of CBD. […] The titration period occurred over two weeks. For patients in need of further seizure reduction, the dosage of 20 mg/kg/day was increased up to 25 mg/kg/day after one week.
All patients were taking at least two concomitant anti-epileptic drugs. These included clobazam; levetiracetam; topiramate; stiripentol; phenobarbital; lacsamide; valproic acid; zonisamide. The average number of concomitant antiepileptic drugs being taken was 2.7. The majority took either clobazam and/or valproic acid.
Prior to treatment with CBD, patients recorded the number of seizures they experienced. This established the baseline levels. During the course of treatment, patients recorded the number of seizures experienced each day.

Consider `C=C(C)[C@@H]1CCC(C)=C[C@H]1c1c(O)cc(CCCCC)cc1O` [CBD Extract, Cannabidiol], for which the “mean total seizures over time” value is given as “starts decreasing during the titration period”.
